Assay results taken from US20230265151A1, “GIP/GLP1 CO-AGONIST COMPOUNDS” (priority 2020, published 2023).
Like-named read-outs stand apart in the source and are kept apart here. *1 amine or outer side, *2 acyl side, *3 side chain or, on linkers, in order; H or OH if unused. Where a SMILES comes first, the peptide text is derived from it. Side-chain parts run from the residue outwards. [ ]: non-standard residue; d: D form. The star is where a group is joined. αMePhe(2-F) = C[C@](N)(Cc1ccccc1F)C(=O)O; γGlu = O=C(O)[C@H](CCC(=O)[*:2])N[*:1]; C14 diacid = O=C(O)CCCCCCCCCCCCC(=O)*; αMeY = C[C@](N)(Cc1ccc(O)cc1)C(=O)O; 4Pal = N[C@@H](Cc1ccncc1)C(=O)O; αMeL = CC(C)C[C@](C)(N)C(=O)O; Orn = NCCC[C@H](N)C(=O)O; AEEA = NCCOCCOCC(=O)O; Aib = CC(C)(N)C(=O)O

Key:
Type in all cases: cell-based
hGLP-1R = hGLP-1R (Homo sapiens, UniProt P43220); experiment: Functional cAMP formation (HTRF) in HEK-293 clonal cells expressing hGLP-1R, 0.1% bovine casein, without or with 1.0% human serum albumin; parameters: expressed in transfected cells; conditions: 37° C.; for EC50: cAMP, 0.1% bovine casein (no human serum albumin), geometric mean; for Emax: percent of maximal response to GLP-1(7-36)NH2, read-out: hGLP-1R Emax, % ± SEM
Sequence of hGLP-1R (P43220 24-463): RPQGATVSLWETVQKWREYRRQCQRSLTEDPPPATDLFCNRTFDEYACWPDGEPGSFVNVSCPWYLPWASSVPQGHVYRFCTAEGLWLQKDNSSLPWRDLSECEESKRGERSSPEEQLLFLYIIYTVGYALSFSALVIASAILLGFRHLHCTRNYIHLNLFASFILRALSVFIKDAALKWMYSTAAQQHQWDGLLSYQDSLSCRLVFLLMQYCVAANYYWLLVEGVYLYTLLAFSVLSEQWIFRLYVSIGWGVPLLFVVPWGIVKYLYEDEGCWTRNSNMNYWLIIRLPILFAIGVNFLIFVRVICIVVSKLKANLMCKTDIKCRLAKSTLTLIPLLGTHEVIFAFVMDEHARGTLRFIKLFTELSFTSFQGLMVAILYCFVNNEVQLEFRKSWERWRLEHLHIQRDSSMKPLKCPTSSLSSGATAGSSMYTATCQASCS
Method in brief: (§1)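 Readings of the HTRF 665/620 nm ratio, which falls as cAMP rises, were converted to nM cAMP using a standard curve after 30 min peptide exposure at 37° C.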

hGCGR = biological target: T1, hGCGR (Homo sapiens, UniProt P47871); experiment: Functional cAMP formation (HTRF) in HEK-293 clonal cells expressing hGCGR, 0.1% bovine casein, without or with 1.0% human serum albumin; conditions: 37° C., geometric mean
T1 construct: expressed in transfected cells
T1 sequence (P47871 26-477): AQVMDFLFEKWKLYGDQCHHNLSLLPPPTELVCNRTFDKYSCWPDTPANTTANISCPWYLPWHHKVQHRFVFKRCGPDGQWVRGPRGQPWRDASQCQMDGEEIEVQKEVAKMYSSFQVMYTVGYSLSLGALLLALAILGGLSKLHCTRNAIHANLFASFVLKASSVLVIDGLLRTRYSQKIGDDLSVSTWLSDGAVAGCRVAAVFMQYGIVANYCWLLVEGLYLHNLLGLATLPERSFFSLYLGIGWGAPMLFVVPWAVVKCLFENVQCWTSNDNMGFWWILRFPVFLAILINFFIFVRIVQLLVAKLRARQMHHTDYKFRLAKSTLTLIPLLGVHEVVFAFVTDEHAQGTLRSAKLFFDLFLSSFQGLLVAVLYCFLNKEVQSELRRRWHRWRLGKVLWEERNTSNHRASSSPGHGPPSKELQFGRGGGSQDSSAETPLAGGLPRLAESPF
Method in brief: as §1

hGIPR = biological target: T2, hGIPR (Homo sapiens, UniProt P48546); experiment: Functional cAMP formation (HTRF) in HEK-293 clonal cells expressing hGIPR, 0.1% bovine casein, without or with 1.0% human serum albumin; conditions: for Emax: percent of maximal response to GIP(1-42)NH2; for EC50: geometric mean, read-out: hGIPR EC50, nM (SEM, n)
T2 construct: expressed in transfected cells
T2 sequence (P48546 22-466): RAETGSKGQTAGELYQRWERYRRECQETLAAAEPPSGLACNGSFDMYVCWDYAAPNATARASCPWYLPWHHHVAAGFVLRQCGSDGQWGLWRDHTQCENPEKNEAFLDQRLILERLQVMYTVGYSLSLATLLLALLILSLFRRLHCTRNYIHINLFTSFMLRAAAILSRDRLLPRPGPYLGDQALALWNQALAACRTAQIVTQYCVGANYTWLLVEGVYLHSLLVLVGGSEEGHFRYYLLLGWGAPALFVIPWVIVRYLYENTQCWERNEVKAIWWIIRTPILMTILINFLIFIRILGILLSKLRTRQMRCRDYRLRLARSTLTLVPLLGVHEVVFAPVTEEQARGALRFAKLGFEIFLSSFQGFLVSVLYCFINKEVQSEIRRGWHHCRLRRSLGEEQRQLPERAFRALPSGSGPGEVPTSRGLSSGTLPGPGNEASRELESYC
Method in brief: as §1

[1] = HEK293, 0.1% bovine casein and 1.0% human serum albumin
[2] = HEK293, cAMP, 0.1% bovine casein, arithmetic mean
[3] = read-out: hGLP-1R EC50, nM (SEM, n)
[4] = 0.1% bovine casein and 1.0% human serum albumin, read-out: hGCGR EC50, nM (SEM, n)
[5] = cAMP, 0.1% bovine casein (no human serum albumin), read-out: hGCGR EC50, nM (SEM, n)
[6] = HEK293, 0.1% bovine casein and 1.0% human serum albumin, 37° C., read-out: hGIPR Emax, % ± SEM
[7] = cAMP, 37° C., 0.1% bovine casein (no human serum albumin)
[8] = 0.1% bovine casein and 1.0% human serum albumin, 37° C.

Compound | EC50 (hGLP-1R; hGLP-1R EC50, nM (SEM, n)) | EC50 (hGCGR; hGCGR EC50, nM (SEM, n), 0.1% bovine casein and 1.0% human serum albumin) | EC50 (hGCGR; hGCGR EC50, nM (SEM, n), cAMP, 0.1% bovine casein (no human serum albumin)) | Emax (hGIPR; HEK293, read-out: hGIPR Emax, % ± SEM, cAMP, 37° C., 0.1% bovine casein, arithmetic mean) | Emax (hGLP-1R; [1]) | Emax (hGLP-1R; [2]) | EC50 (hGLP-1R; [3]) | EC50 (hGCGR; [4]) | EC50 (hGCGR; [5]) | Emax (hGIPR; [6]) | EC50 (hGIPR; [7]) | EC50 (hGIPR; [8]) | Emax (hGIPR; HEK293, cAMP, 37° C., 0.1% bovine casein, arithmetic mean, read-out: hGIPR Emax, % ± SEM)
CCCC[C@H](NC(=O)[C@H](CC(=O)O)NC(=O)[C@H](CO)NC(=O)[C@@H](NC(=O)[C@](C)(Cc1ccccc1F)NC(=O)[C@@H](NC(=O)CNC(=O)[C@H](CCC(=O)O)NC(=O)C(C)(C)NC(=O)[C@@H](N)Cc1ccc(O)cc1)[C@@H](C)O)[C@@H](C)O)C(=O)N[C@@H](CO)C(=O)N[C@H](C(=O)N[C@@](C)(CC(C)C)C(=O)N[C@@H](CC(C)C)C(=O)N[C@@H](CC(=O)O)C(=O)N[C@@H](CCCN)C(=O)N[C@H](C(=O)N[C@@H](C)C(=O)N[C@@H](CCC(N)=O)C(=O)NC(C)(C)C(=O)N[C@@H](CCC(=O)O)C(=O)N[C@@H](Cc1ccccc1)C(=O)N[C@H](C(=O)N[C@@H](CCCCNC(=O)COCCOCCNC(=O)COCCOCCNC(=O)CC[C@H](NC(=O)CCCCCCCCCOc1ccc(C(=O)O)cc1)C(=O)O)C(=O)N[C@@](C)(Cc1ccc(O)cc1)C(=O)N[C@@H](CC(C)C)C(=O)N[C@H](C(=O)N[C@@H](CCCCNC(=O)COCCOCCNC(=O)COCCOCCNC(=O)CC[C@H](NC(=O)CCCCCCCCCOc1ccc(C(=O)O)cc1)C(=O)O)C(=O)NCC(=O)NCC(=O)N1CCC[C@H]1C(=O)N[C@@H](CO)C(=O)N[C@@H](CO)C(=O)NCC(=O)N[C@@H](C)C(=O)N1CCC[C@H]1C(=O)N1CCC[C@H]1C(=O)N1CCC[C@H]1C(=O)N[C@@H](CO)C(N)=O)[C@@H](C)CC)[C@@H](C)CC)[C@@H](C)CC)[C@@H](C)CC [Example 314] | 0.673 nM | > 9950 nM | > 9950 nM | 100% |  |  |  |  |  |  |  |  | 
CC[C@H](C)[C@H](NC(=O)[C@H](CCCN)NC(=O)[C@H](CC(=O)O)NC(=O)[C@H](CC(C)C)NC(=O)[C@](C)(CC(C)C)NC(=O)[C@@H](NC(=O)C(C)(C)NC(=O)[C@H](Cc1ccncc1)NC(=O)[C@H](CC(=O)O)NC(=O)[C@H](CO)NC(=O)[C@@H](NC(=O)[C@](C)(Cc1ccccc1F)NC(=O)[C@@H](NC(=O)CNC(=O)[C@H](CCC(=O)O)NC(=O)C(C)(C)NC(=O)[C@@H](N)Cc1ccc(O)cc1)[C@@H](C)O)[C@@H](C)O)[C@@H](C)CC)C(=O)N[C@@H](C)C(=O)N[C@@H](CCC(N)=O)C(=O)NC(C)(C)C(=O)N[C@@H](CCCN)C(=O)N[C@@H](Cc1ccccc1)C(=O)N[C@H](C(=O)N[C@@H](CCCCNC(=O)COCCOCCNC(=O)COCCOCCNC(=O)CC[C@H](NC(=O)CCCCCCCCCCCCC(=O)O)C(=O)O)C(=O)N[C@@](C)(Cc1ccc(O)cc1)C(=O)N[C@@H](CC(C)C)C(=O)N[C@H](C(=O)N[C@@H](CCCCNC(=O)COCCOCCNC(=O)COCCOCCNC(=O)CC[C@H](NC(=O)CCCCCCCCCCCCC(=O)O)C(=O)O)C(=O)NCC(=O)NCC(=O)N1CCC[C@H]1C(=O)N[C@@H](CO)C(=O)N[C@@H](CO)C(=O)NCC(=O)N[C@@H](C)C(=O)N1CCC[C@H]1C(=O)N1CCC[C@H]1C(=O)N1CCC[C@H]1C(=O)N[C@@H](CO)C(N)=O)[C@@H](C)CC)[C@@H](C)CC [Example 315] (H-Y[Aib]EGT[αMePhe(2-F)]TSD[4Pal][Aib]I[αMeL]LD[Orn]IAQ[Aib][Orn]FIK([AEEA-AEEA-γGlu-C14 diacid])[αMeY]LIK([AEEA-AEEA-γGlu-C14 diacid])GGPSSGAPPPS-NH2) |  |  |  |  | 93.5% | 98.9% | 0.376 nM | > 9950 nM | > 9950 nM | 89.2% | 0.0245 nM |  | 
CC[C@H](C)[C@H](NC(=O)[C@H](CCCN)NC(=O)[C@H](CC(=O)O)NC(=O)[C@H](CC(C)C)NC(=O)[C@](C)(CC(C)C)NC(=O)[C@@H](NC(=O)C(C)(C)NC(=O)[C@H](Cc1ccc(O)cc1)NC(=O)[C@H](CC(=O)O)NC(=O)[C@H](CO)NC(=O)[C@@H](NC(=O)[C@](C)(Cc1ccccc1F)NC(=O)[C@@H](NC(=O)CNC(=O)[C@H](CCC(=O)O)NC(=O)C(C)(C)NC(=O)[C@@H](N)Cc1ccc(O)cc1)[C@@H](C)O)[C@@H](C)O)[C@@H](C)CC)C(=O)N[C@@H](C)C(=O)N[C@@H](CCC(N)=O)C(=O)NC(C)(C)C(=O)N[C@@H](CCCN)C(=O)N[C@@H](Cc1ccccc1)C(=O)N[C@H](C(=O)N[C@@H](CCCCNC(=O)COCCOCCNC(=O)COCCOCCNC(=O)CC[C@H](NC(=O)CCCCCCCCCCCCC(=O)O)C(=O)O)C(=O)N[C@@](C)(Cc1ccc(O)cc1)C(=O)N[C@@H](CC(C)C)C(=O)N[C@H](C(=O)N[C@@H](CCCCNC(=O)COCCOCCNC(=O)COCCOCCNC(=O)CC[C@H](NC(=O)CCCCCCCCCCCCC(=O)O)C(=O)O)C(=O)NCC(=O)NCC(=O)N1CCC[C@H]1C(=O)N[C@@H](CO)C(=O)N[C@@H](CO)C(=O)NCC(=O)N[C@@H](C)C(=O)N1CCC[C@H]1C(=O)N1CCC[C@H]1C(=O)N1CCC[C@H]1C(=O)N[C@@H](CO)C(N)=O)[C@@H](C)CC)[C@@H](C)CC [Example 316] |  |  |  |  | 113% | 109% | 0.571 nM | > 9950 nM | > 9950 nM |  | 0.0316 nM | 1.11 nM | 
CC[C@H](C)[C@H](NC(=O)[C@H](CCCN)NC(=O)[C@H](CC(=O)O)NC(=O)[C@H](CC(C)C)NC(=O)[C@](C)(CC(C)C)NC(=O)[C@@H](NC(=O)C(C)(C)NC(=O)[C@@H](NC(=O)[C@H](CC(=O)O)NC(=O)[C@H](CO)NC(=O)[C@@H](NC(=O)[C@](C)(Cc1ccccc1F)NC(=O)[C@@H](NC(=O)CNC(=O)[C@H](CCC(=O)O)NC(=O)C(C)(C)NC(=O)[C@@H](N)Cc1ccc(O)cc1)[C@@H](C)O)[C@@H](C)O)C(C)C)[C@@H](C)CC)C(=O)N[C@@H](C)C(=O)N[C@@H](CCC(N)=O)C(=O)NC(C)(C)C(=O)N[C@@H](CCCN)C(=O)N[C@@H](Cc1ccccc1)C(=O)N[C@H](C(=O)N[C@@H](CCCCNC(=O)COCCOCCNC(=O)COCCOCCNC(=O)CC[C@H](NC(=O)CCCCCCCCCCCCC(=O)O)C(=O)O)C(=O)N[C@@](C)(Cc1ccc(O)cc1)C(=O)N[C@@H](CC(C)C)C(=O)N[C@H](C(=O)N[C@@H](CCCCNC(=O)COCCOCCNC(=O)COCCOCCNC(=O)CC[C@H](NC(=O)CCCCCCCCCCCCC(=O)O)C(=O)O)C(=O)NCC(=O)NCC(=O)N1CCC[C@H]1C(=O)N[C@@H](CO)C(=O)N[C@@H](CO)C(=O)NCC(=O)N[C@@H](C)C(=O)N1CCC[C@H]1C(=O)N1CCC[C@H]1C(=O)N1CCC[C@H]1C(=O)N[C@@H](CO)C(N)=O)[C@@H](C)CC)[C@@H](C)CC [Example 317] |  |  |  |  | 98.1% |  | 1.34 nM | > 9950 nM | > 9950 nM | 84.4% | 0.0587 nM | 2.03 nM | 112%
CC[C@H](C)[C@H](NC(=O)[C@H](CC(C)C)NC(=O)[C@](C)(Cc1ccc(O)cc1)NC(=O)[C@@H](CCC(=O)O)NC(=O)[C@@H](NC(=O)[C@H](Cc1ccccc1)NC(=O)[C@H](CCCCNC(=O)COCCOCCNC(=O)COCCOCCNC(=O)CC[C@H](NC(=O)CCCCCCCCCCCCC(=O)O)C(=O)O)NC(=O)C(C)(C)NC(=O)[C@H](CCC(N)=O)NC(=O)[C@H](C)NC(=O)[C@H](CCCCNC(=O)COCCOCCNC(=O)COCCOCCNC(=O)CC[C@H](NC(=O)CCCCCCCCCCCCC(=O)O)C(=O)O)NC(=O)[C@H](CCCN)NC(=O)[C@H](CC(=O)O)NC(=O)[C@H](CC(C)C)NC(=O)[C@](C)(CC(C)C)NC(=O)[C@@H](NC(=O)C(C)(C)NC(=O)[C@@H](NC(=O)[C@H](CC(=O)O)NC(=O)[C@H](CO)NC(=O)[C@@H](NC(=O)[C@](C)(Cc1ccccc1F)NC(=O)[C@@H](NC(=O)CNC(=O)[C@H](CCC(=O)O)NC(=O)C(C)(C)NC(=O)[C@@H](N)Cc1ccc(O)cc1)[C@@H](C)O)[C@@H](C)O)C(C)C)[C@@H](C)CC)[C@@H](C)CC)C(=O)N[C@@H](CCC(=O)O)C(=O)NCC(=O)NCC(=O)N1CCC[C@H]1C(=O)N[C@@H](CO)C(=O)N[C@@H](CO)C(=O)NCC(=O)N[C@@H](C)C(=O)N1CCC[C@H]1C(=O)N1CCC[C@H]1C(=O)N1CCC[C@H]1C(=O)N[C@@H](CO)C(N)=O [Example 318] |  |  |  |  |  |  | 0.219 nM | > 9950 nM | > 9950 nM | 91.4% | 0.0402 nM |  | 
